According to ChEMBL document CHEMBL3734719, “Discovery of highly potent triazoleantifungal agents with piperidine-oxadiazole side chains” (2015):
Values after ≈ are worked out from the molar mass of the structure shown. Active and inactive are the calls of the source. The calls are words filed in the database; no cut-off is given here.

Key:
[1] = tested on: Candida albicans; experiment: Antifungal activity against Candida albicans SC5314 assessed as inhibition of yeast to hypha transisition at >1 ug/ml after 3 hrs measured as increase in yeast cells; assay type: functional, organism-based
[2] = tested on: Candida albicans; experiment: Antifungal activity against Candida albicans SC5314 assessed as inhibition of yeast to hypha transisition at >1 ug/ml after 3 hrs measured as increase in pseudohyphal cells; assay type: functional, organism-based
[3] = tested on: Caenorhabditis elegans; experiment: Growth inhibition of Caenorhabditis elegans at 1 to 160 ug/ml after 6 days; assay type: functional, organism-based
[4] = tested on: Candida albicans; experiment: Antifungal activity against Candida albicans after 48 hrs by spectrophotometry; assay type: functional
[5] = tested on: Candida parapsilosis; experiment: Antifungal activity against Candida parapsilosis after 48 hrs by spectrophotometry; assay type: functional; settings: Lodderomyces parapsilosis
[6] = tested on: Cryptococcus neoformans; experiment: Antifungal activity against Cryptococcus neoformans after 48 hrs by spectrophotometry; assay type: functional
[7] = tested on: Nakaseomyces glabratus; experiment: Antifungal activity against Candida glabrata after 48 hrs by spectrophotometry; assay type: functional
[8] = tested on: Aspergillus fumigatus; experiment: Antifungal activity against Aspergillus fumigatus after 48 hrs by spectrophotometry; assay type: functional
[9] = tested on: Trichophyton rubrum; experiment: Antifungal activity against Trichophyton rubrum after 48 hrs by spectrophotometry; assay type: functional
[10] = tested on: Nannizzia gypsea; experiment: Antifungal activity against Microsporum gypseum after 48 hrs by spectrophotometry; assay type: functional
[11] = tested on: Candida albicans; experiment: Antifungal activity against Candida albicans after 48 hrs by spectrophotometry relative to fluconazole; assay type: functional
[12] = tested on: Candida albicans; experiment: Antifungal activity against fluconazole-resistant Candida albicans 103 after 48 hrs by spectrophotometry; assay type: functional; settings: Candida albicans, 103, 48 h
[13] = tested on: Candida albicans; experiment: Antifungal activity against fluconazole-resistant Candida albicans 805 after 48 hrs by spectrophotometry; assay type: functional; settings: Candida albicans, 805, 48 h
[14] = tested on: Candida albicans; experiment: Antifungal activity against fluconazole-resistant Candida albicans 0710922 after 48 hrs by spectrophotometry; assay type: functional; settings: Candida albicans, 0710922, 48 h
[15] = tested on: Candida albicans; experiment: Antifungal activity against Candida albicans SC5314 assessed as inhibition of yeast to hypha transisition at >1 ug/ml after 3 hrs measured as decrease in hyphae; assay type: functional, organism-based

`OC(CN1CCC(c2nnc(-c3ccc(C(F)(F)F)cc3)o2)CC1)(Cn1cncn1)c1ccc(F)cc1F` (centres undefined) was tested, and the inhibition [1] was “Active”, the inhibition [2] was “Active” and the inhibition [3] was “inactive”. For the same compound, the MIC80 [4] was 0.031 µg/mL (≈ 0.058 µM), the MIC80 [5] was 0.5 µg/mL (≈ 0.935 µM) and the MIC80 [6] was 0.25 µg/mL (≈ 0.468 µM). The MIC80 [7] was 2 µg/mL (≈ 3.74 µM), the MIC80 [8] was 2 µg/mL (≈ 3.74 µM) and the MIC80 [9] was 1 µg/mL (≈ 1.87 µM). The MIC80 [10] was 1 µg/mL (≈ 1.87 µM), the Ratio [11] was 8 and the MIC50 [12] was 0.25 µg/mL (≈ 0.468 µM). The MIC80 [12] was 8 µg/mL (≈ 15 µM), the MIC50 [13] was 0.0625 µg/mL (≈ 0.117 µM) and the MIC80 [13] was 16 µg/mL (≈ 29.9 µM). The MIC50 [14] was 0.125 µg/mL (≈ 0.234 µM), the MIC80 [14] was 16 µg/mL (≈ 29.9 µM) and the inhibition [15] was “Active”.
With `OC(CN1CCC(c2nnc(-c3cccnc3)o2)CC1)(Cn1cncn1)c1ccc(F)cc1F` (centres undefined) the MIC80 [4] was 0.125 µg/mL (≈ 0.267 µM), the MIC80 [5] was 1 µg/mL (≈ 2.14 µM) and the MIC80 [6] was 0.5 µg/mL (≈ 1.07 µM). For the same compound, the MIC80 [7] was 4 µg/mL (≈ 8.56 µM), the MIC80 [8] was 4 µg/mL (≈ 8.56 µM) and the MIC80 [9] was 4 µg/mL (≈ 8.56 µM). For the same compound, the MIC80 [10] was 4 µg/mL (≈ 8.56 µM).
In the case of `O=[N+]([O-])c1ccc(-c2nnc(C3CCN(CC(O)(Cn4cncn4)c4ccc(F)cc4F)CC3)o2)cc1` (centres undefined), the MIC80 [4] is reported as 0.25 µg/mL (≈ 0.489 µM), the MIC80 [5] is reported as 2 µg/mL (≈ 3.91 µM) and the MIC80 [6] is reported as 1 µg/mL (≈ 1.96 µM). It also gave an MIC80 [7] of 4 µg/mL (≈ 7.82 µM), an MIC80 [8] of 4 µg/mL (≈ 7.82 µM) and an MIC80 [9] of 2 µg/mL (≈ 3.91 µM). The MIC80 [10] was 2 µg/mL (≈ 3.91 µM).
`COc1ccc(-c2noc(C3CCN(CC(O)(Cn4cncn4)c4ccc(F)cc4F)CC3)n2)cc1` (centres undefined) was tested, and the inhibition [1] was “Active”, the inhibition [2] was “Active” and the inhibition [3] was “inactive”. It also gave an MIC80 [4] of 0.016 µg/mL (≈ 0.0322 µM), an MIC80 [5] of 0.25 µg/mL (≈ 0.504 µM) and an MIC80 [6] of 0.25 µg/mL (≈ 0.504 µM). It also gave an MIC80 [7] of 1 µg/mL (≈ 2.01 µM), an MIC80 [8] of 1 µg/mL (≈ 2.01 µM) and an MIC80 [9] of 0.5 µg/mL (≈ 1.01 µM). For the same compound, the MIC80 [10] was 2 µg/mL (≈ 4.03 µM), the Ratio [11] was 8 and the MIC50 [12] was 0.25 µg/mL (≈ 0.504 µM). It also gave an MIC80 [12] of 4 µg/mL (≈ 8.06 µM), an MIC50 [13] of 0.125 µg/mL (≈ 0.252 µM) and an MIC80 [13] of 8 µg/mL (≈ 16.1 µM). For the same compound, the MIC50 [14] was 0.125 µg/mL (≈ 0.252 µM), the MIC80 [14] was 16 µg/mL (≈ 32.2 µM) and the inhibition [15] was “Active”.
For `OC(CN1CCC(c2nc(-c3ccc(F)cc3)no2)CC1)(Cn1cncn1)c1ccc(F)cc1F` (centres undefined), the MIC80 [4] was 0.5 µg/mL (≈ 1.03 µM), the MIC80 [5] was 2 µg/mL (≈ 4.13 µM) and the MIC80 [6] was 1 µg/mL (≈ 2.06 µM). For the same compound, the MIC80 [7] was 2 µg/mL (≈ 4.13 µM), the MIC80 [8] was 2 µg/mL (≈ 4.13 µM) and the MIC80 [9] was 4 µg/mL (≈ 8.26 µM). It also gave an MIC80 [10] of 1 µg/mL (≈ 2.06 µM).
`Cc1ccc(-c2noc(C3CCN(CC(O)(Cn4cncn4)c4ccc(F)cc4F)CC3)n2)cc1` (centres undefined) was tested, and the MIC80 [4] was 0.5 µg/mL (≈ 1.04 µM), the MIC80 [5] was 2 µg/mL (≈ 4.16 µM) and the MIC80 [6] was 4 µg/mL (≈ 8.32 µM). For the same compound, the MIC80 [7] was 4 µg/mL (≈ 8.32 µM), the MIC80 [8] was 4 µg/mL (≈ 8.32 µM) and the MIC80 [9] was 2 µg/mL (≈ 4.16 µM). The MIC80 [10] was 8 µg/mL (≈ 16.6 µM).
`OC(CN1CCC(c2nc(-c3ccc(C(F)(F)F)cc3)no2)CC1)(Cn1cncn1)c1ccc(F)cc1F` (centres undefined) was tested, and the MIC80 [4] was 0.5 µg/mL (≈ 0.935 µM), the MIC80 [5] was 4 µg/mL (≈ 7.48 µM) and the MIC80 [6] was 2 µg/mL (≈ 3.74 µM). For the same compound, the MIC80 [7] was 2 µg/mL (≈ 3.74 µM), the MIC80 [8] was 2 µg/mL (≈ 3.74 µM) and the MIC80 [9] was 4 µg/mL (≈ 7.48 µM). For the same compound, the MIC80 [10] was 2 µg/mL (≈ 3.74 µM).
`Cc1cccc(-c2nnc(C3CCN(CC(O)(Cn4cncn4)c4ccc(F)cc4F)CC3)o2)c1` (centres undefined) showed an MIC80 [4] of 0.25 µg/mL (≈ 0.52 µM), an MIC80 [5] of 2 µg/mL (≈ 4.16 µM) and an MIC80 [6] of 1 µg/mL (≈ 2.08 µM). For the same compound, the MIC80 [7] was 2 µg/mL (≈ 4.16 µM), the MIC80 [8] was 2 µg/mL (≈ 4.16 µM) and the MIC80 [9] was 2 µg/mL (≈ 4.16 µM). The MIC80 [10] was 0.5 µg/mL (≈ 1.04 µM).
With `OC(CN1CCC(c2nc(-c3ccsc3)no2)CC1)(Cn1cncn1)c1ccc(F)cc1F` (centres undefined) the MIC80 [4] was 0.5 µg/mL (≈ 1.06 µM), the MIC80 [5] was 4 µg/mL (≈ 8.47 µM) and the MIC80 [6] was 2 µg/mL (≈ 4.23 µM). It also gave an MIC80 [7] of 4 µg/mL (≈ 8.47 µM), an MIC80 [8] of 4 µg/mL (≈ 8.47 µM) and an MIC80 [9] of 4 µg/mL (≈ 8.47 µM). For the same compound, the MIC80 [10] was 4 µg/mL (≈ 8.47 µM).
With `OC(CN1CCC(c2nnc(-c3ccc(Cl)cc3)o2)CC1)(Cn1cncn1)c1ccc(F)cc1F` (centres undefined) the MIC80 [4] was 0.5 µg/mL (≈ 0.998 µM), the MIC80 [5] was 4 µg/mL (≈ 7.99 µM) and the MIC80 [6] was 1 µg/mL (≈ 2 µM). It also gave an MIC80 [7] of 8 µg/mL (≈ 16 µM), an MIC80 [8] of 8 µg/mL (≈ 16 µM) and an MIC80 [9] of 8 µg/mL (≈ 16 µM). For the same compound, the MIC80 [10] was 64 µg/mL (≈ 128 µM).
In the case of `OC(CN1CCC(c2nnc(-c3c(F)cccc3F)o2)CC1)(Cn1cncn1)c1ccc(F)cc1F` (centres undefined), the MIC80 [4] is reported as 0.063 µg/mL (≈ 0.125 µM), the MIC80 [5] is reported as 0.5 µg/mL (≈ 0.995 µM) and the MIC80 [6] is reported as ≤ 0.125 µg/mL. For the same compound, the MIC80 [7] was 0.5 µg/mL (≈ 0.995 µM), the MIC80 [8] was 0.5 µg/mL (≈ 0.995 µM) and the MIC80 [9] was 2 µg/mL (≈ 3.98 µM). For the same compound, the MIC80 [10] was 2 µg/mL (≈ 3.98 µM).
Work on `OC(Cn1cncn1)(Cn1cncn1)c1ccc(F)cc1F` [FLUCONAZOLE] yielded an MIC80 [4] of 0.25 µg/mL (≈ 0.816 µM), an MIC80 [5] of 2 µg/mL (≈ 6.53 µM) and an MIC80 [6] of 0.25 µg/mL (≈ 0.816 µM). For the same compound, the MIC80 [7] was 4 µg/mL (≈ 13.1 µM), the MIC80 [8] was 4 µg/mL (≈ 13.1 µM) and the MIC80 [9] was 2 µg/mL (≈ 6.53 µM). The MIC80 [10] was 32 µg/mL (≈ 104 µM), the MIC50 [12] was 256 µg/mL (≈ 836 µM) and the MIC80 [12] was > 1020 µg/mL. For the same compound, the MIC50 [13] was 256 µg/mL (≈ 836 µM), the MIC80 [13] was > 1020 µg/mL and the MIC50 [14] was 512 µg/mL (≈ 1670 µM). For the same compound, the MIC80 [14] was > 1020 µg/mL.
For `OC(CN1CCC(c2nnc(-c3ccco3)o2)CC1)(Cn1cncn1)c1ccc(F)cc1F` (centres undefined), the MIC80 [4] was 0.125 µg/mL (≈ 0.274 µM), the MIC80 [5] was 0.5 µg/mL (≈ 1.1 µM) and the MIC80 [6] was ≤ 0.125 µg/mL. For the same compound, the MIC80 [7] was 0.5 µg/mL (≈ 1.1 µM), the MIC80 [8] was 0.5 µg/mL (≈ 1.1 µM) and the MIC80 [9] was 2 µg/mL (≈ 4.38 µM). It also gave an MIC80 [10] of 4 µg/mL (≈ 8.76 µM).
